According to US8273762B2, “Hexahydro-pyrrolo-isoquinoline compounds” (Janssen Pharmaceutica NV, priority 2005, dated 2012):
Like-named read-outs stand apart in the source and are kept apart here.

Experiments:
Rat SERT = target: T1, Rat SERT (Rattus norvegicus, UniProt P31652); test: Rat brain SERT binding ([3H]-Citalopram displacement)
T1 construct: A rat brain without cerebellum (Zivic Laboratories, Inc.—Pittsburgh, Pa.) was homogenized; tissue Zivic Laboratories, Inc; host or cells: rat brain without cerebellum, membranes

[1] = target: T2, cloned human H3 receptor, stably expressed in SK-N-MC cells (Homo sapiens, UniProt Q9Y5N1); test: H3 receptor binding (N-[3H]-α-methylhistamine displacement); details: SK-N-MC membranes, 0.8 nM N-[3H]-α-methylhistamine
T2 construct: expressed in transfected cells

[2] = target: T3, human SERT (HEK293 membranes) (Homo sapiens, UniProt P31645); test: Human SERT binding (3H-citalopram displacement)
T3 construct: purchased Perkin-Elmer; host or cells: HEK293 membranes
Method: Nonspecific binding was determined in the presence of 10 μM fluoxetine for the SERT. The membranes were washed and the radioactivity was counted as above.

[3] = target: T4, human H3 receptor (SK-N-MC cells) (Homo sapiens, UniProt Q9Y5N1); test: Cyclic AMP accumulation (β-galactosidase reporter, Schild analysis vs histamine); assay type: cell-based
T4 construct: expressed in transfected cells; host or cells: SK-N-MC sublines with CRE-beta-galactosidase reporter

[4] = rat brain membranes, 0.6 nM [3H]-Citalopram, read-out: Rat SERT Ki

T4 sequence (Q9Y5N1 whole entry): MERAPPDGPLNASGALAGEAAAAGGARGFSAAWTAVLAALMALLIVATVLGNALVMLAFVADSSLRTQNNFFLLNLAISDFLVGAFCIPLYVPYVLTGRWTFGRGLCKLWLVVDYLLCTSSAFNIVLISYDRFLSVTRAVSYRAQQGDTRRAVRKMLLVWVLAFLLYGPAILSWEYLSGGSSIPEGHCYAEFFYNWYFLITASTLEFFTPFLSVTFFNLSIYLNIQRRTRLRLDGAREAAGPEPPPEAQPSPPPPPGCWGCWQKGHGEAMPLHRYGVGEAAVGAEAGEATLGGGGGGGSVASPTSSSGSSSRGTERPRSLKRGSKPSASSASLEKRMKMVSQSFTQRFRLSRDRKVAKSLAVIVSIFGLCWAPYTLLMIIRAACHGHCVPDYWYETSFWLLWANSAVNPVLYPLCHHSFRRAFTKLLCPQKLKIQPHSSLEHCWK
T2 sequence (Q9Y5N1 whole entry): as above
T1 sequence (P31652 whole entry): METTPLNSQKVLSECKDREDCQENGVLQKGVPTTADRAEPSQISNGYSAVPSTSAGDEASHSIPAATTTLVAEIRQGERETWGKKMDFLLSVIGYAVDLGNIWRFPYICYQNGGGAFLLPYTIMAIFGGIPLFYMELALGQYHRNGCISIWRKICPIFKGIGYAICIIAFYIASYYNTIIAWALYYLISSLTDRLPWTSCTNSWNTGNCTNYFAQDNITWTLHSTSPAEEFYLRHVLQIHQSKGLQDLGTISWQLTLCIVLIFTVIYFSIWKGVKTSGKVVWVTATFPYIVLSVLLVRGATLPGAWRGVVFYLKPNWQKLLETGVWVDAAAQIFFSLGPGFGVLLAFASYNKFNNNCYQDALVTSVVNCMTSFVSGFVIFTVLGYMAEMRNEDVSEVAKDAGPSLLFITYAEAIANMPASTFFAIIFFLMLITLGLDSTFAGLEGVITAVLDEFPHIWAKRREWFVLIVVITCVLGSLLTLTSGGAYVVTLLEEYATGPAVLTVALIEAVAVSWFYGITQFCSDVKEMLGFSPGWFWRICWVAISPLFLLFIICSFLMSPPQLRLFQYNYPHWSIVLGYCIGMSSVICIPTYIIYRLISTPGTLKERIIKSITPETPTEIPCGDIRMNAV
T3 sequence (P31645 whole entry): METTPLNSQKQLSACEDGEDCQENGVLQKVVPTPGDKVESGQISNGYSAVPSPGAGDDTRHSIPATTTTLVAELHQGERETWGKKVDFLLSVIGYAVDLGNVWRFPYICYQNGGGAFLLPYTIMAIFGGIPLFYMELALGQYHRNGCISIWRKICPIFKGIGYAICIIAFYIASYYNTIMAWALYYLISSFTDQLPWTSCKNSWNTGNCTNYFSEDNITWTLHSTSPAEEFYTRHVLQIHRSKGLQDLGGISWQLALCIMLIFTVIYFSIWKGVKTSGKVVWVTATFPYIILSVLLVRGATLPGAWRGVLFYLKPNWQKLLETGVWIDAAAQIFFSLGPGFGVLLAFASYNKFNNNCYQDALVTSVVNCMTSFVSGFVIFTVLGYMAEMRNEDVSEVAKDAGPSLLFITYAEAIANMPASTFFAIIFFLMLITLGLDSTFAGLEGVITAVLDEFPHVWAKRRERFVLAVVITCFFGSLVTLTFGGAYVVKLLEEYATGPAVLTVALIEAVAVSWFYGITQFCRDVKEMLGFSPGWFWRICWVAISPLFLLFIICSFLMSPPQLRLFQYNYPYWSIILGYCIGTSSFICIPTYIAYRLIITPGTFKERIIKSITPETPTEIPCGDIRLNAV

Compound: COc1ccc([C@H]2CN3CCC[C@H]3c3cc(OC4CCN(C(C)C)CC4)ccc32)cc1 (relative stereo) [Example 28]
- Ki (Rat SERT; [4]): 4 nM
- Ki [1]: 0.4 nM
- Ki [2]: 5 nM

Compound: FC(F)(F)c1ccc([C@@H]2CN3CCC[C@H]3c3cccc(OCCCN4CCCCC4)c32)cc1 (relative stereo) [Example 7C]
- Ki (Rat SERT; [4]): 630 nM
- Ki [1]: 31 nM

Compound: FC(F)(F)c1ccc([C@@H]2CN3CCC[C@@H]3c3cc(OCCCN4CCCCC4)ccc32)cc1 (relative stereo) [Example 7B, Trans-9-(3-Piperidin-1-yl-propoxy)-6-(4-trifluoromethyl-phenyl)-1,2,3,5,6,10b-hexahydro-pyrrolo[2,1-a]isoquinoline]
- Ki (Rat SERT; [4]): 25 nM

Compound: COc1ccc([C@H]2CN3CCC[C@@H]3c3cc(OCCCN4CCOCC4)ccc32)cc1 [Example 94, (1R,6R)-6-(4-Methoxy-phenyl)-9-(3-morpholin-4-yl-propoxy)-1,2,3,5,6,10b-hexahydro-pyrrolo[2,1-a]isoquinoline]
- Ki (Rat SERT; [4]): 53 nM
- Ki [1]: 4 nM
- Ki [2]: 111 nM

Compound: CN(C)c1ccc([C@H]2CN3CCC[C@H]3c3cc(OCCCN4CCCCC4)ccc32)cc1 (relative stereo) [Example 30]
- Ki (Rat SERT; [4]): 3 nM
- Ki [1]: 2 nM
- Ki [2]: 2 nM

Compound: c1ccc([C@H]2CN3CCC[C@H]3c3cc(OCCCN4CCCCC4)ccc32)cc1 (relative stereo) [Example 1A, Cis-6-Phenyl-9-(3-piperidin-1-yl-propoxy)-1,2,3,5,6,10b-hexahydro-pyrrolo[2,1a]isoquinoline]
- Ki (Rat SERT; [4]): 2 nM
- Kb ([3]; read-out: H3 pA2 (converted)): 0.2 nM
- Ki [1]: 0.9 nM
- Ki [2]: 4 nM

Compound: Clc1cccc([C@@H]2CN3CCC[C@H]3c3cccc(OCCCN4CCCCC4)c32)c1 (relative stereo) [Example 11C]
- Ki (Rat SERT; [4]): 1000 nM
- Ki [1]: 136 nM

Compound: Oc1ccc([C@@H]2CN3CCC[C@H]3c3cccc(OCCCN4CCCCC4)c32)cc1 (relative stereo) [Example 9B]
- Ki (Rat SERT; [4]): 6000 nM
- Ki [1]: 1000 nM

Compound: N#Cc1ccc([C@H]2CN3CCC[C@H]3c3cc(OCCCN4CCCCC4)ccc32)cc1 (relative stereo) [Example 41B, Trans-4-[9-(3-Piperidin-1-yl-propoxy)-1,2,3,5,6,10b-hexahydro-pyrrolo[2,1-a]isoquinolin-6-yl]-benzonitrile]
- Ki (Rat SERT; [4]): 6 nM
- Kb ([3]; read-out: H3 pA2 (converted)): 0.794 nM
- Ki [1]: 1 nM

Compound: Oc1ccc([C@H]2CN3CCC[C@H]3c3cc(OCCCN4CCCCC4)ccc32)cc1 (relative stereo) [Example 9A]
- Ki (Rat SERT; [4]): 9 nM
- Kb ([3]; read-out: H3 pA2 (converted)): 0.316 nM
- Ki [1]: 2 nM
- Ki [2]: 58 nM

Compound: FC(F)(F)Oc1ccc([C@H]2CN3CCC[C@H]3c3cc(OCCCN4CCCCC4)ccc32)cc1 (relative stereo) [Example 17]
- Ki (Rat SERT; [4]): 11 nM
- Kb ([3]; read-out: H3 pA2 (converted)): 6.31 nM
- Ki [1]: 4 nM
- Ki [2]: 7 nM

Compound: O=[N+]([O-])c1ccc([C@@H]2CN3CCC[C@H]3c3cc(OCCCN4CCCCC4)ccc32)cc1 (relative stereo) [Example 2B, Trans-6-(4-Nitro-phenyl)-9-(3-piperidin-1-yl-propoxy)-1,2,3,5,6,10b-hexahydro-pyrrolo[2,1-a]isoquinoline]
- Ki (Rat SERT; [4]): 544 nM
- Kb ([3]; read-out: H3 pA2 (converted)): 1.58 nM
- Ki [1]: 31 nM

Compound: c1ccc([C@@H]2CN3CCC[C@H]3c3cc(OCCCN4CCCCC4)ccc32)cc1 (relative stereo) [Example 1B, Trans-6-Phenyl-9-(3-piperidin-1-yl-propoxy)-1,2,3,5,6,10b-hexahydro-pyrrolo[2,1a]isoquinoline]
- Ki (Rat SERT; [4]): 138 nM
- Kb ([3]; read-out: H3 pA2 (converted)): 0.251 nM
- Ki [1]: 0.2 nM

Compound: COc1ccc([C@@H]2CN3CCC[C@@H]3c3cc(OCCCN4CCOCC4)ccc32)cc1 [Example 92, (1R,6S)-6-(4-Methoxy-phenyl)-9-(3-morpholin-4-yl-propoxy)-1,2,3,5,6,10b-hexahydro-pyrrolo[2,1-a]isoquinoline]
- Ki (Rat SERT; [4]): 2.2 nM
- Kb ([3]; read-out: H3 pA2 (converted)): 15.8 nM
- Ki [1]: 16 nM
- Ki [2]: 4 nM

Compound: COc1ccc([C@@H]2CN3CCC[C@H]3c3cc(OCCCN4CCOCC4)ccc32)cc1 [Example 95, (1S,6S)-6-(4-Methoxy-phenyl)-9-(3-morpholin-4-yl-propoxy)-1,2,3,5,6,10b-hexahydro-pyrrolo[2,1-a]isoquinoline]
- Ki (Rat SERT; [4]): 11 nM
- Ki [1]: 6 nM
- Ki [2]: 13 nM

Compound: COc1ccc([C@H]2CN3CCC[C@H]3c3cc(OCCCN4CCOC[C@@H]4C)ccc32)cc1 [Example 46, Cis-6-(4-Methoxy-phenyl)-9-[3-(3S-methyl-morpholin-4-yl)-propoxy]-1,2,3,5,6,10b-hexahydro-pyrrolo[2,1-a]isoquinoline]
- Ki (Rat SERT; [4]): 14 nM
- Ki [1]: 4 nM
- Ki [2]: 9 nM

Compound: CSc1ccc([C@H]2CN3CCC[C@H]3c3cc(OCCCN4CCOCC4)ccc32)cc1 [Example 90, (1S,6R)-6-(4-Methylsulfanyl-phenyl)-9-(3-morpholin-4-yl-propoxy)-1,2,3,5,6,10b-hexahydro-pyrrolo[2,1-a]isoquinoline]
- Ki (Rat SERT; [4]): 24 nM
- Ki [1]: 10 nM

Compound: O=[N+]([O-])c1cccc([C@@H]2CN3CCC[C@H]3c3cccc(OCCCN4CCCCC4)c32)c1 (relative stereo) [Example 4D, Trans-6-(3-Nitro-phenyl)-7-(3-piperidin-1-yl-propoxy)-1,2,3,5,6,10b-hexahydro-pyrrolo[2,1-a]isoquinoline]
- Ki (Rat SERT; [4]): 154 nM
- Ki [1]: 1 nM

Compound: C[Si](C)(C)C#Cc1cccc([C@H]2CN3CCC[C@H]3c3cc(OCCCN4CCCCC4)ccc32)c1 (relative stereo) [Example 33]
- Ki (Rat SERT): 33 nM
- Kb [3]: 7.94 nM
- Ki [1]: 7 nM

Compound: C[Si](C)(C)C#Cc1ccc([C@H]2CN3CCC[C@H]3c3cc(OCCCN4CCCCC4)ccc32)cc1 (relative stereo) [Example 36]
- Ki (Rat SERT): 15 nM
- Kb [3]: 10 nM
- Ki [1]: 4 nM

Compound: COc1cccc([C@@H]2CN3CCC[C@H]3c3cccc(OCCCN4CCCCC4)c32)c1 (relative stereo) [Example 10C, Trans-6-(3-Methoxy-phenyl)-7-(3-piperidin-1-yl-propoxy)-1,2,3,5,6,10b-hexahydro-pyrrolo[2,1-a]isoquinoline]
- Ki (Rat SERT; [4]): 2000 nM
- Ki [1]: 82 nM

Compound: CSc1ccc(C2CN3CCCC3c3cccc(OCCCN4CCCCC4)c32)cc1 (centres unmarked) [Example 39C, 6-(4-Methylsulfanyl-phenyl)-7-(3-piperidin-1-yl-propoxy)-1,2,3,5,6,10b-hexahydro-pyrrolo[2,1-a]isoquinoline]
- Ki (Rat SERT; [4]): 69 nM
- Ki [1]: 36 nM

Compound: COc1cccc([C@H]2CN3CCC[C@H]3c3cc(OCCCN4CCCCC4)ccc32)c1 (relative stereo) [Example 10A, Cis-6-(3-Methoxy-phenyl)-9-(3-piperidin-1-yl-propoxy)-1,2,3,5,6,10b-hexahydro-pyrrolo[2,1-a]isoquinoline]
- Ki (Rat SERT; [4]): 5 nM
- Kb ([3]; read-out: H3 pA2 (converted)): 0.158 nM
- Ki [1]: 2 nM
- Ki [2]: 2 nM

Compound: c1ccc([C@@H]2CN3CCC[C@H]3c3cccc(OCCCN4CCCCC4)c32)cc1 (relative stereo) [Example 1C, Trans-6-Phenyl-7-(3-piperidin-1-yl-propoxy)-1,2,3,5,6,10b-hexahydro-pyrrolo[2,1a]isoquinoline]
- Ki (Rat SERT; [4]): 4000 nM
- Ki [1]: 68 nM

Compound: CSc1ccc([C@@H]2CN3CCC[C@@H]3c3cc(OCCCN4CCOCC4)ccc32)cc1 [Example 89, (1R,6S)-6-(4-Methylsulfanyl-phenyl)-9-(3-morpholin-4-yl-propoxy)-1,2,3,5,6,10b-hexahydro-pyrrolo[2,1-a]isoquinoline]
- Ki (Rat SERT; [4]): 3 nM
- Ki [1]: 16 nM

Compound: COc1cccc([C@@H]2CN3CCC[C@H]3c3cc(OCCCN4CCCCC4)ccc32)c1 (relative stereo) [Example 10B, Trans-6-(3-Methoxy-phenyl)-9-(3-piperidin-1-yl-propoxy)-1,2,3,5,6,10b-hexahydro-pyrrolo[2,1-a]isoquinoline]
- Ki (Rat SERT; [4]): 37 nM
- Kb ([3]; read-out: H3 pA2 (converted)): 0.251 nM
- Ki [1]: 2 nM

Compound: COc1ccc([C@H]2CN3CCC[C@H]3c3cc(OCCCN4CCOCC4)ccc32)cc1 [Example 91, (1S,6R)-6-(4-Methoxy-phenyl)-9-(3-morpholin-4-yl-propoxy)-1,2,3,5,6,10b-hexahydro-pyrrolo[2,1-a]isoquinoline]
- Ki (Rat SERT; [4]): 60 nM
- Kb ([3]; read-out: H3 pA2 (converted)): 3.16 nM

Compound: Clc1cccc([C@H]2CN3CCC[C@H]3c3cc(OCCCN4CCCCC4)ccc32)c1 (relative stereo) [Example 11B, Trans-6-(3-Chloro-phenyl)-9-(3-piperidin-1-yl-propoxy)-1,2,3,5,6,10b-hexahydro-pyrrolo[2,1-a]isoquinoline]
- Ki (Rat SERT; [4]): 91 nM
- Kb ([3]; read-out: H3 pA2 (converted)): 0.501 nM
- Ki [1]: 1 nM

Compound: N#Cc1ccc([C@@H]2CN3CCC[C@H]3c3cc(OCCCN4CCCCC4)ccc32)cc1 (relative stereo) [Example 41A, Cis-4-[9-(3-Piperidin-1-yl-propoxy)-1,2,3,5,6,10b-hexahydro-pyrrolo[2,1-a]isoquinolin-6-yl]-benzonitrile]
- Ki (Rat SERT; [4]): 25 nM
- Kb ([3]; read-out: H3 pA2 (converted)): 0.794 nM
- Ki [1]: 1 nM
- Ki [2]: 59 nM

Compound: FC(F)(F)c1ccc([C@@H]2CN3CCC[C@H]3c3cc(OCCCN4CCCCC4)ccc32)cc1 (relative stereo) [Example 7A, Cis-9-(3-Piperidin-1-yl-propoxy)-6-(4-trifluoromethyl-phenyl)-1,2,3,5,6,10b-hexahydro-pyrrolo[2,1-a]isoquinoline]
- Ki (Rat SERT; [4]): 27 nM

Compound: Clc1cccc([C@@H]2CN3CCC[C@H]3c3cc(OCCCN4CCCCC4)ccc32)c1 (relative stereo) [Example 11A, Cis-6-(3-Chloro-phenyl)-9-(3-piperidin-1-yl-propoxy)-1,2,3,5,6,10b-hexahydro-pyrrolo[2,1-a]isoquinoline]
- Ki (Rat SERT; [4]): 4 nM
- Kb ([3]; read-out: H3 pA2 (converted)): 0.316 nM
- Ki [1]: 1 nM
- Ki [2]: 0.6 nM
